According to US20170325459A1, “BICYCLIC COMPOUNDS AS PEST CONTROL AGENTS” (Bayer CropScience Aktiengesellschaft, priority 2014, published 2017):

What was measured:
[1] = log P by HPLC (OECD Guideline 117), method [a] acidic range pH 2.7; format: physicochemical; conditions: for chromatographic logP: reversed-phase (RP) C18 HPLC column
Method: (§1) The log P values were determined in accordance with OECD Guideline 117 (EC Directive 92/69/EEC) by HPLC (high-performance liquid chromatography) using reversed-phase (RP) columns (C18), by the following methods: [a] The LC-MS determination in the acidic range is carried out at pH 2.7 with 0.1% aqueous formic acid and acetonitrile (contains 0.1% formic acid) as eluents; linear gradient from 10% acetonitrile to 95% acetonitrile. [b] LC-MS determination in the neutral range is effected at pH 7.8 with 0.001 molar aqueous ammonium hydrogencarbonate solution and acetonitrile as eluents; linear gradient from 10% acetonitrile to 95% acetonitrile. Calibration is effected using unbranched alkan-2-ones (having 3 to 16 carbon atoms) with known log P values (log P values determined on the basis of the retention times by linear interpolation between two successive alkanones).

[2] = log P by HPLC (OECD Guideline 117), method [b] neutral range pH 7.8; format: physicochemical; conditions: for chromatographic logP: reversed-phase (RP) C18 HPLC column
Method: as §1

[3] = tested on: Myzus persicae; assay: Myzus persicae spray test; format: in vivo; conditions: application rate 500 g/ha, Chinese cabbage leaf discs, after 6 days; for pest or weed control at 500 g/ha: Myzus persicae, foliar, 144 h, read-out: efficacy (aphids killed)
Method: Myzus persicae—Spray Test Solvent: 78 parts by weight of acetone • • 1.5 parts by weight of dimethylformamide Emulsifier: alkylaryl polyglycol ether To produce a suitable active ingredient formulation, 1 part by weight of active ingredient is dissolved using the specified parts by weight of solvent and made up with water containing an emulsifier concentration of 1000 ppm until the desired concentration is attained. To produce further test concentrations, the formulation is diluted with emulsifier-containing water. Discs of Chinese cabbage leaves (Brassica pekinensis) infested by all stages of the green peach aphid (Myzus persicae) are sprayed with an active ingredient formulation of the desired concentration. After 6 days, the efficacy in % is determined. 100% means that all the aphids have been killed and 0% means that none of the aphids have been killed.

| Compound | chromatographic logP [1] | logP[a] [1] | logP[b] [2] | further results |
| --- | --- | --- | --- | --- |
| c1ccc(Nc2ccc3nc(-c4cccnc4)sc3c2)nc1 [compound 24, N-(Pyridin-2-yl)-2-(pyridin-3-yl)-1,3-benzothiazol-6-amine] | 1.04 |  |  | chromatographic logP [2]: 2.47 |
| c1ccc(-c2ccc3nc(-c4cccnc4)sc3c2)cc1 [compound 1] |  | 3.7 | 3.87 |  |
| Ic1ccc2nc(-c3cccnc3)sc2c1 [I-a-2, 6-Iodo-2-(pyridin-3-yl)-1,3-benzothiazole] | 3.37 |  |  | chromatographic logP [2]: 3.39 |
| Cn1cncc(-c2ccc3nc(-c4cccnc4)sc3c2)c1=O [compound 43] |  | 1.34 | 1.51 |  |
| CC1(C)OB(c2ccc3nc(-c4cccnc4)sc3c2)OC1(C)C [I-h-1, 2-(Pyridin-3-yl)-6-(4,4,5,5-tetramethyl-1,3,2-dioxaborolan-2-yl)-1,3-benzothiazole] | 4.03 |  |  | chromatographic logP [2]: 4.14 |
| CS(=O)(=O)CCNC(=O)c1ccc2nc(-c3cncc(F)c3)sc2c1 [compound 72] |  |  |  | efficacy (aphids killed) [3]: 90% |
| O=C(NCC(F)(F)F)c1ccc2nc(-c3cccnc3)sc2c1 [compound 32, 2-(Pyridin-3-yl)-N-(2,2,2-trifluoroethyl)-1,3-benzothiazole-6-carboxamide] | 1.96 |  |  | pest or weed control at 500 g/ha [3]: 100% |
| Cn1c(SCC(F)(F)F)nn(-c2ccc3nc(-c4cccnc4)sc3c2)c1=O [compound 54] |  | 2.84 | 2.91 |  |
| c1cncc(-c2nc3ccc(-n4cccn4)cc3s2)c1 [compound 26] |  |  | 2.2 |  |
| CC(Nc1ccc2nc(-c3cccnc3)sc2c1)c1ccccc1 (stereo not drawn) [compound 17] | 3.23 |  |  | chromatographic logP [2]: 3.33 |
| c1cncc(-c2nc3ccc(-n4cncn4)cc3s2)c1 [compound 31, 2-(Pyridin-3-yl)-6-(1H-1,2,4-triazol-1-yl)-1,3-benzothiazole] |  |  |  | chromatographic logP [2]: 1.63 |
| c1cncc(-c2nc3ccc(NCC4CC4)cc3s2)c1 [compound 14] |  | 2.5 | 2.94 |  |
| c1ccc(CNc2ccc3nc(-c4cccnc4)sc3c2)cc1 [compound 16] |  | 2.91 | 3.12 |  |
| COc1nn(-c2ccc3nc(-c4cccnc4)sc3c2)c(=O)n1C [compound 50] |  |  |  | efficacy (aphids killed) [3]: 90% |
| CC[S+]([O-])c1ccccc1Nc1ccc2nc(-c3cccnc3)sc2c1 (stereo not drawn) [compound 23] |  | 2.25 | 2.24 |  |
| Cn1c(OCC(F)(F)F)nn(-c2ccc3nc(-c4cccnc4)sc3c2)c1=O [compound 53] |  | 2.8 | 2.88 |  |
| Fc1ccccc1-c1ccc2nc(-c3cccnc3)sc2c1 [compound 5] |  | 3.7 | 3.78 |  |
| c1cncc(-c2nc3ccc(N4CCOCC4)cc3s2)c1 [compound 15, 6-(Morpholin-4-yl)-2-(pyridin-3-yl)-1,3-benzothiazole] | 2 |  |  | chromatographic logP [2]: 2.14 |
| CSCc1nn(-c2ccc3nc(-c4cccnc4)sc3c2)c(=O)n1C [compound 55, 4-Methyl-5-[(methylsulphanyl)methyl]-2-[2-(pyridin-3-yl)-1,3-benzothiazol-6-yl]-2,4-dihydro-3H-1,2,4-triazol-3-one] | 2.23 |  |  | chromatographic logP [2]: 2.36 |
| Cn1ccc(-c2ccc3nc(-c4cccnc4)sc3c2)n1 [compound 36] |  | 2.05 | 2.03 |  |
| Cc1cc(C)c([S+]([O-])CC(F)(F)F)cc1Nc1ccc2nc(-c3cccnc3)sc2c1 (stereo not drawn) [compound 19, N-{2,4-Dimethyl-5-[(2,2,2-trifluoroethyl)sulphinyl]phenyl}-2-(pyridin-3-yl)-1,3-benzothiazol-6-amine] |  |  |  | chromatographic logP [2]: 3.07 |
| CSCn1cc(-c2ccc3nc(-c4cccnc4)sc3c2)cn1 [compound 38, 6-{1-[(Methylsulphanyl)methyl]-1H-pyrazol-4-yl}-2-(pyridin-3-yl)-1,3-benzothiazole] | 2.4 |  |  | chromatographic logP [2]: 2.54 |
| Cc1cc(F)c(Nc2ccc3nc(-c4cccnc4)sc3c2)cc1[S+]([O-])CC(F)(F)F (stereo not drawn) [compound 21, N-{2-Fluoro-4-methyl-5-[(2,2,2-trifluoroethyl)sulphinyl]phenyl}-2-(pyridin-3-yl)-1,3-benzothiazol-6-amine] | 2.85 |  |  | chromatographic logP [2]: 2.9 |
| 5-(Ethylsulphanyl)-4-methyl-2-[2-(pyridin-3-yl)-1,3-benzothiazol-6-yl]-2,4-dihydro-33H-1,2,4-triazol-3-one [compound 52] |  | 2.84 | 2.97 |  |
| Clc1ccccc1-c1ccc2nc(-c3cccnc3)sc2c1 [compound 6] |  | 4.05 | 4.2 |  |
| CCSc1ccccc1Nc1ccc2nc(-c3cccnc3)sc2c1 [compound 22] |  | 4.32 | 4.44 |  |

More lines, main results first:

| chromatographic logP [1] | logP[a] [1] | logP[b] [2] | Compound | further results |
| --- | --- | --- | --- | --- |
|  | 2.02 |  | O=C(NCC(F)(F)F)c1ccc2nc(-c3cccnc3)sc2c1 [compound 63] |  |
|  | 1.9 |  | CN(C)C(=O)c1ccc2nc(-c3cncc(F)c3)sc2c1 [compound 60] | efficacy (aphids killed) [3]: 100% |
|  | 2.63 |  | O=C(Nc1ccc2nc(-c3cccnc3)sc2c1)c1cccc([S+]([O-])C(F)(F)F)c1 (stereo not drawn) [compound 86] |  |
| 3.88 |  |  | CN(C(=O)c1cccc(SC(F)(F)F)c1)c1ccc2nc(-c3cncc(F)c3)sc2c1 [compound 85, N-[2-(5-Fluoropyridin-3-yl)-1,3-benzothiazol-6-yl]-N-methyl-3-[(trifluoromethyl)sulphanyl]benzamide] |  |
|  | 3.76 |  | O=C(Nc1cccc(SC(F)(F)F)c1)c1ccc2nc(-c3cccnc3)sc2c1 [compound 73] |  |
| 1.19 |  |  | CS(=O)(=O)CCNC(=O)c1ccc2nc(-c3cccnc3)sc2c1 [compound 71, N-[2-(Methylsulphonyl)ethyl]-2-(pyridin-3-yl)-1,3-benzothiazole-6-carboxamide] | pest or weed control at 500 g/ha [3]: 100% |
|  | 2.08 |  | CSCCC(=O)N(C)c1ccc2nc(-c3cccnc3)sc2c1 [compound 78] | efficacy (aphids killed) [3]: 100% |
|  | 1.94 |  | CN(C(=O)C1CCS(=O)(=O)C1)c1ccc2nc(-c3cncc(F)c3)sc2c1 (stereo not drawn) [compound 83] |  |
| 1.84 |  |  | CCC(=O)N(C)c1ccc2nc(-c3cccnc3)sc2c1 [compound 76, N-Methyl-N-[2-(pyridin-3-yl)-1,3-benzothiazol-6-yl]propanamide] |  |
|  | 3.24 |  | CN(C(=O)c1cccc(SC(F)(F)F)c1)c1ccc2nc(-c3cccnc3)sc2c1 [compound 84] |  |
| 3.27 |  |  | O=C(Nc1ccc2nc(-c3cncc(F)c3)sc2c1)c1cccc([S+]([O-])C(F)(F)F)c1 (stereo not drawn) [compound 87, N-[2-(5-Fluoropyridin-3-yl)-1,3-benzothiazol-6-yl]-3-[(trifluoromethyl)sulphinyl]benzamide] |  |
| 3.26 |  |  | O=C(Nc1cccc([S+]([O-])C(F)(F)F)c1)c1ccc2nc(-c3cncc(F)c3)sc2c1 (stereo not drawn) [compound 75, 2-(5-Fluoropyridin-3-yl)-N-{3-[(trifluoromethyl)sulphinyl]phenyl}-1,3-benzothiazole-6-carboxamide] |  |
| 4.29 |  |  | O=C(Nc1cccc(SC(F)(F)F)c1)c1ccc2nc(-c3cncc(F)c3)sc2c1 [compound 74, 2-(5-Fluoropyridin-3-yl)-N-{3-[(trifluoromethyl)sulphanyl]phenyl}-1,3-benzothiazole-6-carboxamide] |  |
